The values that follow come from patent publication US20210283078A1, “Treatment of cholestatic pruritus” (CymaBay Therapeutics, Inc., priority 2017, published 2021).

Data set [1] deals with PBC patients with pruritus. The following applies: Phase 2a; cited from earlier work.
The test system of data set [2] is PBC patients. The following applies: 12-month trial, cited from earlier work.
The subject of data set [3] is adult subjects with PBC. Description: Example 1: High dose trial in PBC (NCT02609048). The note with it: for cases of asymptomatic increases in transaminases: reversible on cessation, no elevation of total bilirubin. It is filed as in vivo, human. From the text: (§1) The trial subjects were adult, male or female, with a diagnosis of PBC by at least two of the following three criteria: (a) a history of alkaline phosphatase (ALP) above the upper limit of normal (ULN) for at least six months, (b) positive anti-mitochondrial antibody titers >1/40 on immunofluorescence or M2 positive by enzyme linked immunosorbent assay or positive PBC-specific antinuclear antibodies, and (c) documented liver biopsy result consistent with PBC, on a stable and recommended dose of UDCA for the past twelve months, and ALP≥1.67×ULN. Exclusion criteria included AST or ALT≥3×ULN, total bilirubin (TBIL)≥2×ULN, autoimmune hepatitis or a history of chronic viral hepatitis, PSC, the current use of fibrates or simvastatin, the use of colchicine, methotrexate, azathioprine, or systemic steroids in the previous two months, the use of an experimental treatment for PBC, and the use of an experimental or unapproved immunosuppressant. […] Pruritus was assessed using VAS, 5-D itch, and PBC-40. During the study, three cases of asymptomatic increases in transaminases were observed (two in the 200 mg and one in the 50 mg groups): all were reversible on cessation of treatment and were not accompanied by elevation of total bilirubin. Since the study had already shown a clear efficacy signal, the study was discontinued.

Data set [4] concerns adult subjects with PBC. Briefly: Example 2: Low-dose trial in PBC (NCT02955602), pruritus by VAS. The following applies: for baseline median VAS: subjects with VAS>0 at baseline; for median change in VAS: week 26. The class given is in vivo, human.
Description: as §1
At 12 weeks, the results of pruritus assessment by VAS (0-100 scale) were as follows:
37 subjects with VAS>0 at baseline were analysed in the interim analysis at 26 weeks: 18 subjects in the 5/10 mg group and 19 in the 10 mg group. Baseline median VAS were 15 (range 1-68) and 50 (range 5-90) in the 5/10 mg and 10 mg groups, respectively. At week 26, median changes in VAS were −50% and −55% in the 5/10 mg and 10 mg groups, respectively.

The subject of data set [5] is adult subjects with PSC, PFIC, or AS. Description: Example 3: treatment of subjects with hepatobiliary disease associated with pruritus. The following applies: 1, 2, 5, and 10 mg/day oral. The class given is in vivo, human. The procedure:
Subjects are permitted their usual other medications, including UDCA. […] At each visit, the subjects are assessed for cholestatic symptoms and biomarkers, and assessed for cholestatic pruritus. The subjects also maintain health diaries, which are reviewed at each visit.

In data set [6] the test system is patients with cholestatic pruritus. The following applies: several studies; cited from earlier work.
For data set [7] the test system is unchanged. The note with it: more recent study; cited from earlier work.
Data set [8] shares this test system. The note with it: two studies; cited from earlier work.

Like-named read-outs stand apart in the source and are kept apart here.

Regarding `CCCC[C@]1(CC)CS(=O)(=O)c2cc(CNC(CC(=O)O)CC(=O)O)c(OC)cc2[C@@H](c2ccccc2)N1` [GSK2330672], in data set [1], the “diarrhea (most common side effect), subjects” value is recorded as 33% and the “reductions in itch scores (1-10 numerical rating scale, PBC-40 itch domain score, 5-D itch scale) vs placebo” value was “significantly greater reductions in itch scores”.
As to `CC[C@H]1[C@@H](O)[C@@H]2[C@H](CC[C@]3(C)[C@@H]([C@H](C)CCC(=O)O)CC[C@@H]23)[C@@]2(C)CC[C@@H](O)C[C@@H]12` [OCALIVA, 6α-ethylchenodeoxycholic acid], the results for the “severe pruritus, patients” value in data set [2] (10 mg arm) and in data set [2] (titration arm) were 23% and 19%, respectively.
As for `CCO[C@H](COc1ccc(C(F)(F)F)cc1)CSc1ccc(OCC(=O)O)c(C)c1` [Seladelpar, [4-({(2R)-2-ethoxy-3-[4-(trifluoromethyl)phenoxy]propyl}sulfanyl)-2-methylphenoxy]acetic acid], the “cases of asymptomatic increases in transaminases” value is recorded as “one” in data set [3] (50 mg/day oral) and “two” in data set [3] (200 mg/day oral). Besides, in data set [3] (50 or 200 mg/day oral), the “adverse events of pruritus on treatment” value is on record as “no adverse events of pruritus were reported”. In addition, the “anti-cholestatic effect (primary endpoint ALP)” value in data set [3] (50 or 200 mg/day oral, at least two weeks of treatment) was “a potent anti-cholestatic effect was observed”. In data set [4] (5 mg/day and 10 mg/day, 12 weeks), the “effect on cholestatic pruritus associated with PBC” value was “significantly reduced the cholestatic pruritus”. The “pruritus VAS (0-100 scale), median” value in data set [4] (5 mg/day, Visit 2 (Day 1)) is on record as 8; in data set [4] (5 mg/day, Visit 3 (Week 1)), 10; in data set [4] (5 mg/day, Visit 4 (Week 2)), 9; in data set [4] (5 mg/day, Visit 5 (Week 4)), 10; in data set [4] (5 mg/day, Visit 6 (Week 6)), 5; in data set [4] (5 mg/day, Visit 7 (Week 8)) it was 7. The “pruritus VAS (0-100 scale), median” value in data set [4] (5 mg/day, Visit 8 (Week 12)) came to 3; in data set [4] (10 mg/day, Visit 2 (Day 1)) it was 25; in data set [4] (10 mg/day, Visit 3 (Week 1)), 13; in data set [4] (10 mg/day, Visit 4 (Week 2)), 30; in data set [4] (10 mg/day, Visit 5 (Week 4)) it was 20; in data set [4] (10 mg/day, Visit 6 (Week 6)), 10. The “pruritus VAS (0-100 scale), median” value in data set [4] (10 mg/day, Visit 7 (Week 8)) worked out at 15; in data set [4] (10 mg/day, Visit 8 (Week 12)), 6. In addition, the “baseline median VAS” value in data set [4] (10 mg group, n=19) is listed as 50 (range 5-90); in data set [4] (5/10 mg group, n=18), 15 (range 1-68). For the same compound, the “median change in VAS” value in data set [4] (10 mg group) is given as −55%; in data set [4] (5/10 mg group) it was −50%. Also, in data set [4] (10 mg/day, after five days, subject entered with intense pruritus), the “subjects discontinued for increased pruritus possibly related to PBC” value was “One”. For the same compound, the “discontinuations related to seladelpar” value in data set [4] (at 26 weeks) is on record as “no discontinuations related to seladelpar”. Further, the “serious adverse events due to pruritus” value in data set [4] (at 26 weeks) is recorded as “no serious adverse events due to pruritus”. Moreover, the “pruritus reported as an adverse event” value in data set [4] (at 26 weeks, 24/119 subjects) was 20%. In addition, in data set [4] (doses as low as 5 mg/day, at 12 weeks), the “effect on cholestasis, transaminases, LDL-cholesterol, inflammation” value was “reversed cholestasis, decreased transaminases, decreased LDL-cholesterol, and reduced inflammation”. The “improvement in disease (decrease in ALP and GGT)” value in data set [5] is “improvement in their disease”.
In the case of `C=C1CC[C@@]2(O)[C@H]3Cc4ccc(O)c5c4[C@@]2(CCN3CC2CC2)[C@H]1O5` [nalmefene], in data set [6], the “reduction of cholestatic pruritus vs control intervention” value (shortened to “reduction of cholestatic pruritus”) was “more likely to reduce cholestatic pruritus than the control intervention”.
With `C=CCN1CC[C@]23c4c5ccc(O)c4O[C@H]2C(=O)CC[C@@]3(O)[C@H]1C5` [naloxone], the “reduction of cholestatic pruritus” value in data set [6] was “more likely to reduce cholestatic pruritus than the control intervention”.
Regarding `O=C1CC[C@@]2(O)[C@H]3Cc4ccc(O)c5c4[C@@]2(CCN3CC2CC2)[C@H]1O5` [naltrexone], the “reduction of cholestatic pruritus” value in data set [6] is given as “more likely to reduce cholestatic pruritus than the control intervention”.
As to `CO[C@H]1/C=C/O[C@@]2(C)Oc3c(C)c(O)c4c(O)c(c(/C=N/N5CCN(C)CC5)c(O)c4c3C2=O)NC(=O)/C(C)=C\C=C\[C@H](C)[C@H](O)[C@@H](C)[C@@H](O)[C@@H](C)[C@H](OC(C)=O)[C@@H]1C` [rifampicin], in data set [7], the “incidence of significant hepatitis” value is given as 7.3%.
`CN[C@H]1CC[C@@H](c2ccc(Cl)c(Cl)c2)c2ccccc21` [sertraline]: the “tolerability and reduction of itch intensity” value in data set [8] is “well tolerated and moderately effective”.
